Toxic doses and inconclusive results are not listed. Rule as the data show it: active = T/C of 150% or more; inactive = T/C below 125%.
System: L1210 leukemia ip in BDF1 mice, survival T/C
Test: NCI In Vivo Anticancer Drug Screen. Data for tumor model L1210 Leukemia (intraperitoneal) in B6D2F1 (BDF1) mice
Settings: endpoint: mean survival time, higher = longer survival
Outline: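 Antitumor effect is assessed in tumor-bearing animals. Survival in the compound arm is compared with a vehicle-dosed control arm and expressed as their quotient.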

[1] = dose: 100.0 mg/kg/injection, schedule: Q01DX001 (ip), vehicle: other
[2] = dose: 200.0 mg/kg/injection, schedule: Q01DX001 (ip), vehicle: other
[3] = dose: 400.0 mg/kg/injection, schedule: Q01DX001 (ip), vehicle: other
[4] = dose: 100.0 mg/kg/injection, schedule: Q01DX009 (ip), vehicle: saline with Tween-80
[5] = dose: 200.0 mg/kg/injection, schedule: Q01DX009 (ip), vehicle: saline with Tween-80
[6] = dose: 100.0 mg/kg/injection, schedule: Q01DX001 (ip), vehicle: saline
[7] = dose: 100.0 mg/kg/injection, schedule: Q01DX009 (ip), vehicle: Klucel (hydroxypropylcellulose) (HPC)
[8] = dose: 200.0 mg/kg/injection, schedule: Q01DX001 (ip), vehicle: saline
[9] = dose: 200.0 mg/kg/injection, schedule: Q01DX009 (ip), vehicle: Klucel (hydroxypropylcellulose) (HPC)
[10] = dose: 400.0 mg/kg/injection, schedule: Q01DX001 (ip), vehicle: saline
[11] = dose: 400.0 mg/kg/injection, schedule: Q01DX009 (ip), vehicle: Klucel (hydroxypropylcellulose) (HPC)
[12] = dose: 100.0 mg/kg/injection, schedule: Q04DX003 (ip), vehicle: saline with Tween-80
[13] = dose: 200.0 mg/kg/injection, schedule: Q04DX003 (ip), vehicle: saline with Tween-80
[14] = dose: 400.0 mg/kg/injection, schedule: Q04DX003 (ip), vehicle: saline with Tween-80
[15] = dose: 100.0 mg/kg/injection, schedule: Q01DX001 (ip), vehicle: carboxymethylcellulose (CMC)
[16] = dose: 200.0 mg/kg/injection, schedule: Q01DX001 (ip), vehicle: carboxymethylcellulose (CMC)

Measured: T/C

CCOC(=O)C(Cc1ccc(OCc2ccccc2)c(OCc2ccccc2)c1)(NC=O)C(=O)OCC
inactive: [1] 94 % of control | [2] 92 % of control | [3] 87 % of control

Cc1cccnc1NC(=S)Nc1ccccc1Cl
inactive: dose: 100.0 mg/kg/injection, schedule: Q04DX002 (ip), vehicle: gum acacia 88 % of control | dose: 200.0 mg/kg/injection, schedule: Q04DX002 (ip), vehicle: gum acacia 98 % of control

CC(C)C1CCC2=C(CCC3C(C)(C(=O)O)CCCC23C)C1 (stereo unspecified)
inactive: [4] 89 % of control | [5] 91 % of control | dose: 400.0 mg/kg/injection, schedule: Q01DX009 (ip), vehicle: saline with Tween-80 89 % of control

O=C(CCC[n+]1ccccc1)CC(O)(C(F)(F)F)C(F)(F)F
inactive: dose: 50.0 mg/kg/injection, schedule: Q01DX009 (ip), vehicle: saline 105 % of control | dose: 100.0 mg/kg/injection, schedule: Q01DX009 (ip), vehicle: saline 103 % of control | dose: 100.0 mg/kg/injection, schedule: Q04DX003 (ip), vehicle: saline 103 % of control | dose: 200.0 mg/kg/injection, schedule: Q01DX009 (ip), vehicle: saline 100 % of control | dose: 200.0 mg/kg/injection, schedule: Q04DX003 (ip), vehicle: saline 106 % of control

O=C(O)/C=C/c1ccccc1Br
inactive: dose: 50.0 mg/kg/injection, schedule: Q01DX001 (ip), vehicle: saline 97 % of control | [6] 91 % of control | [7] 102 % of control | [8] 94 % of control | [9] 100 % of control | [10] 97 % of control | [11] 100 % of control

O=[N+]([O-])c1cc(Cl)[n+]([O-])c(Cl)c1
inactive: dose: 75.0 mg/kg/injection, schedule: Q01DX001 (ip), vehicle: carboxymethylcellulose (CMC) 101 % of control

CC1=C(Cl)C(=N\S(=O)(=O)c2ccccc2)/c2ccccc2/C1=N/S(=O)(=O)c1ccccc1
inactive: dose: 100.0 mg/kg/injection, schedule: Q01DX001 (ip), vehicle: saline sonified 101 % of control | dose: 200.0 mg/kg/injection, schedule: Q01DX001 (ip), vehicle: saline sonified 100 % of control | dose: 400.0 mg/kg/injection, schedule: Q01DX001 (ip), vehicle: saline sonified 102 % of control

Cc1cc(C)c(C2=C(Br)C(=O)C(c3c(C)cc(C)c(C)c3C)=C(Br)C2=O)c(C)c1C
inactive: dose: 100.0 mg/kg/injection, schedule: Q01DX001 (ip), vehicle: Klucel (hydroxypropylcellulose) (HPC) 98 % of control | dose: 200.0 mg/kg/injection, schedule: Q01DX001 (ip), vehicle: Klucel (hydroxypropylcellulose) (HPC) 103 % of control | dose: 400.0 mg/kg/injection, schedule: Q01DX001 (ip), vehicle: Klucel (hydroxypropylcellulose) (HPC) 98 % of control

COC(=O)[c-]1[c-][c-][c-][c-]1.COC(=O)[c-]1[c-][c-][c-][c-]1.[Fe]
inactive: dose: 12.5 mg/kg/injection, schedule: Q04DX003 (ip), vehicle: Klucel (hydroxypropylcellulose) (HPC) 94 % of control | dose: 25.0 mg/kg/injection, schedule: Q04DX003 (ip), vehicle: Klucel (hydroxypropylcellulose) (HPC) 90 % of control | dose: 50.0 mg/kg/injection, schedule: Q04DX003 (ip), vehicle: Klucel (hydroxypropylcellulose) (HPC) 90 % of control | dose: 75.0 mg/kg/injection, schedule: Q01DX009 (ip), vehicle: Klucel (hydroxypropylcellulose) (HPC) 103 % of control | dose: 115.0 mg/kg/injection, schedule: Q01DX009 (ip), vehicle: Klucel (hydroxypropylcellulose) (HPC) 93 % of control

COC(=O)c1ccc(Cn2ccc(=O)n(Cc3ccc(C(=O)OC)cc3)c2=O)cc1
inactive: [12] 91 % of control | [13] 88 % of control | [14] 90 % of control

CC(C)(C)C(=O)C/C=N/Nc1ccc([N+](=O)[O-])cc1[N+](=O)[O-]
inactive: [6] 96 % of control | [8] 106 % of control | [10] 100 % of control

CNc1ccc(C(=O)C2CC2)cc1
inactive: [4] 92 % of control | [12] 100 % of control | [5] 98 % of control | [13] 100 % of control | [14] 86 % of control

C1CC2CC1C1CNCC21 (stereo unspecified)
inactive: dose: 5.0 mg/kg/injection, schedule: Q01DX001 (ip), vehicle: saline 105 % of control | dose: 10.0 mg/kg/injection, schedule: Q01DX001 (ip), vehicle: saline 97 % of control | dose: 20.0 mg/kg/injection, schedule: Q01DX001 (ip), vehicle: saline 105 % of control | dose: 40.0 mg/kg/injection, schedule: Q01DX001 (ip), vehicle: saline 100 % of control | dose: 50.0 mg/kg/injection, schedule: Q04DX002 (ip), vehicle: Klucel (hydroxypropylcellulose) (HPC) 97 % of control | dose: 80.0 mg/kg/injection, schedule: Q01DX001 (ip), vehicle: saline 91 % of control | dose: 100.0 mg/kg/injection, schedule: Q04DX002 (ip), vehicle: Klucel (hydroxypropylcellulose) (HPC) 97 % of control

FC(F)(F)c1cc(CN(CCCl)CCCl)cc(C(F)(F)F)c1
inactive: dose: 2.4 mg/kg/injection, schedule: Q01DX009 (ip), vehicle: saline 97 % of control | dose: 3.6 mg/kg/injection, schedule: Q01DX009 (ip), vehicle: saline 98 % of control | dose: 8.2 mg/kg/injection, schedule: Q01DX009 (ip), vehicle: saline 108 % of control | dose: 42.0 mg/kg/injection, schedule: Q01DX009 (ip), vehicle: other 97 % of control | dose: 42.0 mg/kg/injection, schedule: Q01DX015 (ip), vehicle: carboxymethylcellulose (CMC) 104 % of control | dose: 50.0 mg/kg/injection, schedule: Q01DX001 (ip), vehicle: carboxymethylcellulose (CMC) 111 % of control | dose: 72.0 mg/kg/injection, schedule: Q01DX009 (ip), vehicle: other 98 % of control | dose: 72.0 mg/kg/injection, schedule: Q01DX015 (ip), vehicle: carboxymethylcellulose (CMC) 116 % of control | [15] 108 % of control | dose: 120.0 mg/kg/injection, schedule: Q01DX015 (ip), vehicle: carboxymethylcellulose (CMC) 116 % of control | dose: 176.0 mg/kg/injection, schedule: Q01DX001 (ip), vehicle: other 100 % of control | dose: 178.0 mg/kg/injection, schedule: Q01DX001 (ip), vehicle: saline 103 % of control | dose: 178.0 mg/kg/injection, schedule: Q04DX003 (ip), vehicle: other 86 % of control | [16] 111 % of control | dose: 264.0 mg/kg/injection, schedule: Q01DX001 (ip), vehicle: other 107 % of control | dose: 267.0 mg/kg/injection, schedule: Q01DX001 (ip), vehicle: saline 116 % of control | [3] 105 % of control | [10] 121 % of control
active: dose: 600.0 mg/kg/injection, schedule: Q01DX001 (ip), vehicle: saline 152 % of control

CCCC[n+]1cccc(C(=O)c2ccccc2)c1
inactive: dose: 75.0 mg/kg/injection, schedule: Q01DX001 (ip), vehicle: saline 101 % of control

COc1cccc(NC2=CC(=O)C(=O)c3ccccc32)c1
inactive: [1] 88 % of control | [2] 92 % of control | [3] 101 % of control

O=S(=O)(O)C(Cl)c1ccccc1 (stereo unspecified)
inactive: dose: 100.0 mg/kg/injection, schedule: Q04DX002 (ip), vehicle: saline 105 % of control | dose: 200.0 mg/kg/injection, schedule: Q04DX002 (ip), vehicle: saline 102 % of control | dose: 400.0 mg/kg/injection, schedule: Q04DX002 (ip), vehicle: saline 98 % of control

c1ccc(N/N=C(/C[n+]2cc3ccccc3c3ccccc32)c2ccccc2)cc1
inactive: dose: 12.5 mg/kg/injection, schedule: Q01DX009 (ip), vehicle: Klucel (hydroxypropylcellulose) (HPC) 100 % of control | dose: 25.0 mg/kg/injection, schedule: Q01DX009 (ip), vehicle: Klucel (hydroxypropylcellulose) (HPC) 89 % of control | dose: 50.0 mg/kg/injection, schedule: Q01DX009 (ip), vehicle: Klucel (hydroxypropylcellulose) (HPC) 102 % of control | [7] 100 % of control

Nc1ccc2c(c1)-c1ccc(F)cc1C2=O
inactive: [15] 91 % of control | [16] 91 % of control | dose: 400.0 mg/kg/injection, schedule: Q01DX001 (ip), vehicle: carboxymethylcellulose (CMC) 89 % of control

CC(=O)c1cccc(NC(=O)Nc2ccc(I)cc2)c1
inactive: [7] 97 % of control | [9] 96 % of control | [11] 97 % of control

Reference: PubChem BioAssay AID248 (DTP/NCI, 2004)
